This test relates to human whole blood. As to the kind of experiment: IFN-α/β, IFN-γ, and TNF-α/IL-1β whole blood reporter gene assays (cytokine release). The note with it: FIG. 4. The test is classed as cell-based. The protocol:
IFN-α/β, IFN-γ, and TNF-α/IL-1β Whole Blood Reporter Gene Assays. Whole heparinized blood is collected from consenting individuals, as approved by the University of Minnesota Institutional Review Board, and is diluted 1:2 in RPMI supplemented with 10% fetal bovine serum (FBS). Forty microliters is added to 384-well, flat-bottomed, cell culture-treated microtiter plates containing serial dilutions of compounds. Following incubation at 37° C. for 24 h, […] of supernatant is transferred to separate 384-well plates using a liquid handler equipped with liquid level sensing in order to avoid disturbing the erythrocyte-rich pellet. Forty microliters of HEK-IFNα/β, HEK-IFNγ, or HEK-TNFα/IL-β cytokine reporter cells (InvivoGen, San Diego, CA) harvested at a density of 1×10^6 cells/mL in DMEM with 10% FBS is added to the supernatant plates and incubated at 37° C. for 24 h. […] Sigmoidal dose-response profiles for each cytokine are observed (Beesu M. et al. J. Med. Chem. 2017, 2084), from which threshold cytokine concentrations corresponding to maximal responses for each cytokine reporter cell line are recorded. […]
Background: A reporter such as luciferase makes a cellular process visible.

For `CCCCc1nc2c(N)nc3ccccc3c2n1Cc1cc(C)c(O)c(CN)c1` [Compound 29, 4-((4-Amino-2-butyl-1H-imidazo[4,5-c]quinolin-1-yl)methyl)-2-(aminomethyl)-6-methylphenol], the “cytokine release in human whole blood” value is “can induce cytokine release strongly”.

(Values after patent US12060350B2, “Therapeutic compounds and methods of use thereof” (REGENTS OF THE UNIVERSITY OF MINNESOTA, priority 2018, dated 2024).)
